{"source": "ChEMBL document CHEMBL5729720", "about": "“Pyridine and pyrazine derivatives as preferential cannabinoid 2 agonists” (2023)", "molecular_target": "Cannabinoid receptor 2 (Homo sapiens, UniProt P34972)", "sequence (P34972 whole entry)": "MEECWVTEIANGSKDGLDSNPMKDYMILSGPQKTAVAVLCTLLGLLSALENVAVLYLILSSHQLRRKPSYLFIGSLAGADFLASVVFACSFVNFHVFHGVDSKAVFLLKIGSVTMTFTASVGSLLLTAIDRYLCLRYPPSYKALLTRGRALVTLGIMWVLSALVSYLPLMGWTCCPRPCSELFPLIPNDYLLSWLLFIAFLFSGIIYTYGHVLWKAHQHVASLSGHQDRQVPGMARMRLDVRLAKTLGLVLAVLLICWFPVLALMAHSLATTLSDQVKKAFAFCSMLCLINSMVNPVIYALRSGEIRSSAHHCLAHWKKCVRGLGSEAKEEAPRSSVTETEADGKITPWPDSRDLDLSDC", "assay": "Radioligand Binding Assay: The affinity of the compounds of the invention for cannabinoid CB1 receptors was determined using recommended amounts of membrane preparations (PerkinElmer) of human embryonic kidney (HEK) cells expressing the human CNR1 or CNR2 receptors in conjunction with 1.5 or 2.6 nM [3H]-CP-55,940 (Perkin Elmer) as radioligand, respectively. Binding was performed in binding buffer (50 mM Tris, 5 mM MgCl2, 2.5 mM EDTA, and 0.5% (wt/vol) fatty acid free BSA, pH 7.4 for CB1 receptor and 50 mM Tris, 5 mM MgCl2, 2.5 mM EGTA, and 0.1% (wt/vol) fatty acid free BSA, pH 7.4 for CB2 receptor) in a total volume of 0.2 ml for 1 h at 30° C. shaking. The reaction was terminated by rapid filtration through microfiltration plates coated with 0.5% polyethylenimine (UniFilter GFB filter plate; Packard). Bound radioactivity was analyzed for Ki using nonlinear regression analysis (Activity Base, ID Business Solution, Limited), with the Kd values for [3H]CP55,940 determined from saturation experiments. The compounds of formula (I) show an excellent affinity for the CB2 receptor."}
{"smiles": "CCC(CC)(NC(=O)c1ccc(N2CC(OC)C2)c(OC[C@H]2C[C@@H]2CO)n1)C(=O)OCCCCF", "values": [{"measurement": "Ki", "result": 1.8, "unit": "nM"}]}
{"smiles": "CCOC(=O)C(CC)(CC)NC(=O)c1ccc(N2CC(OC)C2)c(OC[C@H]2C[C@@H]2COCF)n1", "note": "(mixture of isomers)", "values": [{"measurement": "Ki", "result": 1.8, "unit": "nM"}]}
{"smiles": "CCOC(=O)C(CC)(CC)NC(=O)c1ccc(N2CC(OC)C2)c(OC[C@H]2C[C@@H]2COCCF)n1", "note": "(mixture of isomers)", "values": [{"measurement": "Ki", "result": 3.7, "unit": "nM"}]}
